{
  "source": "patent US9993492B2",
  "about": "“Lysophospholipids and lysophospholipid analogues against honeybee brood diseases” (University of Graz, priority 2013, dated 2018)",
  "key": {"[1]": {"tested_on": "Paenibacillus larvae (Eric II test strain)", "assay": "Inhibition zone test on Columbia agar", "type": "cell-based", "settings": "Paenibacillus larvae, 24 h, 34.5° C.", "procedure": "As test organisms, several different strains of Paenibacillus larvae were used.\nOvernight cultures of the vegetative forms of bacteria were prepared in BHI (brain heart infusion) liquid medium.\nFor the inhibition zone test, 500 μL of overnight culture were added to 15-20 mL of Columbia agar, mixed and poured onto a petri dish. After the agar solidified, either punched wholes are filled with different amounts of test compounds or test compounds are pipetted on paper discs (5 mm Ø). The plate is then incubated for 24 h (34.5° C.) and zones of inhibition are measured and given in mm. Lactic acid and penicillin G were used as positive controls.\nE II—Eric II (test strain of Pl)"}, "Pl-infected larvae": {"tested_on": "Pl-infected larvae", "assay": "In vivo effect of LPC on Pl-infected larvae", "design": "species or system Apis mellifera", "settings": "LPC 10 μg/larva on day 1, 2 and 3 + 50 spores/larva (ERIC II, strain 233/00) on day 1, replicates separated by /, Nlarvae 71/48/48", "procedure": "First instar larvae were transferred into plastic queen cups and fed the following diets: On the first day 10 μL of diet containing 6% glucose, 6% fructose, 1% yeast extract and 50% royal jelly were fed. Test substances (1-O-oleoyl-sn-glycero-3-phosphocholine (oleoyl-LPC), stearic acid, lysophosphatidylinositol and linoleic acid) were added to the first diet in amounts of 0.5 to 10 μg/larvae. For infection with spores of Paenibacillus larvae, larvae were grafted into 5 μL of diet containing test substances and subsequently 5 μL of diet with about 50 added Pl spores were given. Larvae were not fed on the second day to assure the consumption of the given diet. On the third day 20 μL of diet containing 7.5% glucose, 7.5% fructose, 1.5% yeast extract and 50% royal jelly were fed. Amounts of 30, 40 and 60 μL of diet composed of 9% glucose, 9% fructose, 2% yeast extract and 50% royal jelly were fed on the 4th, 5th and 6th day (method modified after Aupinel et al. [Aupinel et al. 2005. Bull Insectol 58:107-111]. Larvae were incubated at 34.5° C. and 95% relative humidity which was reduced to 80% on day 7. The mortality was checked daily for the first 7 days and when individuals emerged from queen cups at day 18 after the transfer into cups. To reduce the time for sporulation of Pl in the lab for security reasons, infection tests with Pl spores were stopped at day 7 with some experiments extend to day 12.\nIn vivo effect of LPC on Pl-infected larvae: Artificial larval rearing was performed as described above. Larvae were individually infected with a dose of c. 50 spores/larva (ERIC II, strain 233/00) given on the first day. LPC was administered on day 1, 2 and 3 in a dose of 10 μg/d. Mortality was checked daily until d 12."}, "Melissococcus plutonius": {"tested_on": "Melissococcus plutonius", "assay": "Antimicrobial assay in liquid Basal Medium against Melissococcus plutonius (MIC)", "type": "cell-based", "settings": "Melissococcus plutonius", "procedure": "M. pl. was cultured in liquid Basal Medium (BM) for 4 days at 35° C. and from here serial dilutions were carried out to estimate CFU/ml by plating onto BM agar plates. 5 days later CFU were count and concentration was estimated to be 3.46*10^6 CFU/ml. For the antimicrobial assay, an inoculum of 50 μl of the liquid culture is added to 1 mL of BM liquid medium. A set of different substances were tested in different concentrations (2, 5 and 10 ppm) in order to find out their inhibitory effect against M. pl growth. For substances tested, concentration applied and results see table 1.2. Three replicates per substance were included in the experiment. 5 days after the experiment was started OE (optical extinction) was measured at 600 nm."}},
  "note": "Where two headings read alike, the source gives them in different places.",
  "data": [
    {"smiles": "CCCCCCCC/C=C\\CCCCCCCC(=O)OC[C@@H](O)COP(=O)([O-])OCC[N+](C)(C)C", "note": "[1-O-oleoyl-sn-glycero-3-phosphocholine]", "values": [
      {"measurement": "zone of inhibition at 5 µg/disc", "setting": "[1]; amount 5 μg", "result": 3.5, "unit": "mm"},
      {"measurement": "zone of inhibition at 10 µg/disc", "setting": "[1]; amount 10 μg", "result": 5, "unit": "mm"},
      {"measurement": "Ndead larvae total", "setting": "Pl-infected larvae; days 1-12", "result": "26/12/14"},
      {"measurement": "Ndead larvae day 1", "setting": "Pl-infected larvae", "result": "0/0/0"},
      {"measurement": "Ndead larvae day 2", "setting": "Pl-infected larvae", "result": "1/0/0"},
      {"measurement": "Ndead larvae day 3", "setting": "Pl-infected larvae", "result": "3/2/4"},
      {"measurement": "Ndead larvae day 4", "setting": "Pl-infected larvae", "result": "11/5/8"},
      {"measurement": "Ndead larvae day 5", "setting": "Pl-infected larvae", "result": "7/2/0"},
      {"measurement": "Ndead larvae day 6", "setting": "Pl-infected larvae", "result": "1/1/1"},
      {"measurement": "Ndead larvae day 7", "setting": "Pl-infected larvae", "result": "1/1/0"},
      {"measurement": "Ndead larvae day 8", "setting": "Pl-infected larvae", "result": "0/0/1"},
      {"measurement": "Ndead larvae day 9", "setting": "Pl-infected larvae", "result": "0/0/0"},
      {"measurement": "Ndead larvae day 10", "setting": "Pl-infected larvae", "result": "2/0/0"},
      {"measurement": "Ndead larvae day 11", "setting": "Pl-infected larvae", "result": "0/1/0"},
      {"measurement": "Ndead larvae day 12", "setting": "Pl-infected larvae", "result": "0/0/0"},
      {"measurement": "MIC", "setting": "Melissococcus plutonius; 120 h, M. pl. in BM liquid medium, OE at 600 nm after 5 days, read-out: MIC", "result": "> 3.8", "unit": "µM"},
      {"measurement": "MIC", "setting": "Melissococcus plutonius; 120 h, M. pl. in BM liquid medium, OE at 600 nm after 5 days, read-out: MIC (ppm)", "result": 2, "unit": "µg/mL"},
      {"measurement": "MIC", "setting": "Melissococcus plutonius; read-out: in vitro M. pl. inhibitory activity, MIC", "result": 2.5, "unit": "µg/mL"}
    ]}
  ]
}
